The results in this text go back to paper PMC10510102, “Efficient Ligand Discovery Using Sulfur(VI) Fluoride Reactive Fragments” (ACS Chemical Biology, 2023).

As usually defined, the kinact is the maximal first-order rate at which the target is inactivated. As a reminder, the kinact/KI is the maximal inactivation rate divided by the concentration that gives half of it.

Experiment [1] addresses T1, CAII (Homo sapiens, UniProt P00918). The experiment can be described thus: Kinetic analyses of covalent modification, intact protein LC-MS. It counts as binding. Details: purchased Sigma Aldrich C6624-500UG; host or cells: E. coli. The note with it: 0.5 μM CAII; 5-100 μM SF; 0-24 h; 20 °C. As to the method: The kinetics of binding were investigated by incubation of the resynthesized and purified SFs 2b–e with CAII at a range of concentrations and analysis by intact protein LC–MS over a 24 h period (see Figure S9). The concentration–response was analyzed based on a two-step model of reversible ligand (L) binding and subsequent irreversible covalent modification of the protein (P) (P + L ⇌ P·L → PL) (see Figure S10).[24] Time courses were fit to a single exponential function to give a kobs for each concentration (Figure 3d). These were then fitted using a Michaelis–Menten model to determine kinact (corresponding to the rate of covalent-bond formation) and KI (corresponding to the recognition of the ligand for the protein pocket) (Figure 3e,f). […]. This is consistent with the strong binding of aryl sulfonamides to the CAII Zn^2+ binding pocket.[33] […] The slow rate of the reaction may be attributed to a suboptimal trajectory of the SF group toward the His64 residue in the reversible bound conformation and/or low nucleophilicity of the residue.[14]
The (resynthesized and purified) SF hits (2b–e, 10 mM) were plated into seven 384-well plates with DMSO to make up identical plates with final concentrations of 100, 50, 20, 10, or 5 μM after adding 15 μL of protein stock solution per well. The percentage of DMSO was kept constant. Purified CAII was subsequently added across all plates. Final concentrations were 0.5 μM protein; 100, 50, 20, 10, or 5 μM SF. The plates were sealed and centrifuged, and the first six plates were immediately queued for analysis by intact protein LC–MS at a temperature of 20 °C with the final plate paused for a 24 h timepoint.
5. CAII – kinetic analyzes
5.1. Protocol for kinetic analyzes (CAII)
The (resynthesized and purified) SF hits (2b–e) were plated into seven Greiner 384 white low volume plate from a 10 mM source in DMSO. Differing volumes were added such that the final concentrations for each compound would be: 100, 50, 20, 10, or 5 µM after adding 15 µL of protein stock solution per well. Volumes of DMSO were made to be consistent for every well. Purified CAII diluted from original stock into a buffer made up of HEPES (pH 7.5, 25 mM) and NaCl (50 mM) in distilled MS-grade water (15 µL per well) was subsequently added across the plates. Final concentrations: 0.5 µM protein; 100, 50, 20, 10, or 5 µM SF. The plates were sealed, centrifuged (1 min, 1000 rpm), and the first six plates were immediately queued for analysis by intact protein LC-MS at a temperature of 20 °C with the final plate paused for a 24 h timepoint. The resulting modification yields were plotted in GraphPad Prism (Version 5.0.4) software against the time of sampling.11 Non-linear regression analyzes were conducted using a ‘one-phase association’ model, with the y=0 value constrained to ‘0’ and plateau value constrained to ‘100’. The observed rate constants (kobs, value ‘K’ in GraphPad) were extracted for each compound at each concentration, then replotted against the corresponding compound concentration. Further non-linear regression analyzes were conducted using a ‘Michaelis-Menten’ model, from which kinact values (‘Vmax’ in GraphPad) and KI values (‘Km’) were extracted. […]
To a Labcyte 384LDV plate containing 96 amine functionalized fragments (10 mM) in DMSO (5 µL per well) was added a stock solution of OSu 2a (10 mM) and NEM (30 mM) in DMSO (5 µL per well). The plate was sealed, centrifuged (1 min, 1000 rpm), and allowed to sit at room temperature for 1 h. After the reaction (assumed product concentration: 5 mM), a Labcyte ECHO© 555 Liquid Handler was used to transfer the library of SFs to a Greiner 384 white low volume plate. […]

Experiment [2] addresses T1, CAII. Briefly: Identification of site of covalent modification by tandem MS. Details: purchased Sigma Aldrich C6624-500UG; host or cells: E. coli. The note with it: for major site of covalent modification: 2 μM CAII, 50 μM SF, 24 h, 20 °C, trypsin digest LC-MS/MS; for minor site of covalent modification: N-terminal peptide 1MSHHWGYGK9. The text has this: Tandem MS analyses were subsequently employed for identification of the amino acid residue(s) that was covalently modified. Samples of CAII modified by the resynthesized and purified SFs 2d and 2e were digested using trypsin and analyzed by LC–MS/MS. This identified peptides 59ILNNGH*AFNVEFDDSQDKAVLK80 and 59ILNNGH*AFNVEFDDSQDK76 as the major site(s) of modification on His64 for both 2d (366 Da) (see Figure S6) and 2e (380 Da) (Figure 3b), respectively. Further to this, minor modifications were observed on the N-terminal peptide 1MSHHWGYGK9 at His3 (2d and 2e) and Tyr7 (2d only).
The (resynthesized and purified) SF hits (2d and 2e, 10 mM) were plated into a 384-well plate. Purified CAII was subsequently added across the plate. Final concentrations: 2 μM protein; 50 μM SF. The plate was sealed, centrifuged, and incubated at 20 °C for 24 h, and 15 μL aliquots were subsequently removed and analyzed by intact protein LC–MS. The remaining samples (1 μg) were separated by sodium dodecyl sulfate-polyacrylamide gel electrophoresis to remove excess unbound compounds. Gels were stained with colloidal Comassie InstantBlue, and bands corresponding to CAII were excised, reduced with TCEP (10 mM, 65 °C, 30 min), and alkylated with iodoacetamide (10 mM, rt, 30 min, dark). Samples were digested with trypsin (1:10 E/S, 37 °C, 16 h) in ammonium bicarbonate (100 mM). After removal of the supernatant, peptides were extracted using acetonitrile. Combined supernatants were centrifuged and acidified prior to injection into the LC–MS/MS system. Tandem MS spectra were searched for peptide matches against the sequence for CAII. Raw files were searched using trypsin as the enzyme. Masses corresponding to [SF – HF] were allowed as variable modification(s) on cysteine, histidine, lysine, tyrosine, serine, and threonine as well as the protein N-terminus. MS/MS spectra were manually validated and annotated. […]
4.2. Identification of the site of covalent modification by tandem MS (CAII)
The (resynthesized and purified) SF hits (2d and 2e) were plated into a Greiner 384 PP F-bottom plate from a 10 mM source in DMSO.
Purified CAII diluted from original stock into a buffer made up of HEPES (pH 7.5, 25 mM) and NaCl (50 mM) in distilled MS-grade water (50 µL per well) was subsequently added across the plate. Final concentrations: 2 µM protein; 50 µM SF. The plate was sealed, centrifuged (1 min, 1000 rpm), incubated at 20 °C for 24 h, and 15 µL aliquots were subsequently removed and analyzed by intact protein LC-MS. The remaining samples (1 μg) were separated by SDS-PAGE to remove excess unbound compound. Gels were stained with colloidal Comassie InstantBlue and bands corresponding to CAII were excised, reduced with 10 mM TCEP (65 °C, 30 mins), and alkylated with 10 mM iodoacetamide (r.t., 30 mins, dark). […]

In the case of `CC(NC(=O)Cc1ccc(S(=O)(=O)F)cc1)c1cccc(S(N)(=O)=O)c1` (stereo not shown) [2b], on CAII [1], the KI (inactivation) came to 8.9 µM, the kinact was 3.2e-05 s⁻¹ and the kinact/KI is 3.6 M⁻¹ s⁻¹.

With `NS(=O)(=O)Cc1cccc(CNC(=O)Cc2ccc(S(=O)(=O)F)cc2)c1` [2c], on CAII [1], the KI (inactivation) stood at 16 µM, the kinact amounted to 3.3e-05 s⁻¹ and the kinact/KI was found to be 2 M⁻¹ s⁻¹.

For `NS(=O)(=O)c1cccc(CNC(=O)Cc2ccc(S(=O)(=O)F)cc2)c1` [2d], on CAII [1], the Ki was under 5 µM, the kinact was determined as 3e-05 s⁻¹ and the inactivation efficiency (kinact/KI) is over 6.1 M⁻¹ s⁻¹. Further, on CAII [2], the “major site of covalent modification” value is “His64”; the “minor site of covalent modification” value is “His3 and Tyr7”.

In the case of `NS(=O)(=O)c1ccc(CCNC(=O)Cc2ccc(S(=O)(=O)F)cc2)cc1` [2e], on CAII [1], the Ki is under 5 µM, the kinact stood at 1.8e-05 s⁻¹ and the kinact/KI was over 3.6 M⁻¹ s⁻¹. Also, at CAII [2], the “major site of covalent modification” value is recorded as “His64” and the “minor site of covalent modification” value was “His3”.
